In article PMC6556873, “Rapid Covalent-Probe Discovery by Electrophile-Fragment Screening” (Journal of the American Chemical Society, 2019):
Read-outs that look alike come from different tables or passages of the source.

Key:
[1] = in vitro; set-up: species or system CCD841, HEK293; settings: human, hb2 cells, read-out: HB-2 Cells Viability (%)
[2] = in vitro; set-up: species or system HB2, HEK293; settings: human, ccd841 cells
[3] = molecular target: T1, PCAF (Homo sapiens, UniProt Q92831); set-up: Intact protein LC/MS covalent labelling, fragments in pools of five, 200 uM each, 4 °C; settings: 24 h, 4 °C, pool of five; 200 µM; covalent
T1 construct: gene KAT2B
T1 sequence (Q92831 whole entry, the tested form may be a part): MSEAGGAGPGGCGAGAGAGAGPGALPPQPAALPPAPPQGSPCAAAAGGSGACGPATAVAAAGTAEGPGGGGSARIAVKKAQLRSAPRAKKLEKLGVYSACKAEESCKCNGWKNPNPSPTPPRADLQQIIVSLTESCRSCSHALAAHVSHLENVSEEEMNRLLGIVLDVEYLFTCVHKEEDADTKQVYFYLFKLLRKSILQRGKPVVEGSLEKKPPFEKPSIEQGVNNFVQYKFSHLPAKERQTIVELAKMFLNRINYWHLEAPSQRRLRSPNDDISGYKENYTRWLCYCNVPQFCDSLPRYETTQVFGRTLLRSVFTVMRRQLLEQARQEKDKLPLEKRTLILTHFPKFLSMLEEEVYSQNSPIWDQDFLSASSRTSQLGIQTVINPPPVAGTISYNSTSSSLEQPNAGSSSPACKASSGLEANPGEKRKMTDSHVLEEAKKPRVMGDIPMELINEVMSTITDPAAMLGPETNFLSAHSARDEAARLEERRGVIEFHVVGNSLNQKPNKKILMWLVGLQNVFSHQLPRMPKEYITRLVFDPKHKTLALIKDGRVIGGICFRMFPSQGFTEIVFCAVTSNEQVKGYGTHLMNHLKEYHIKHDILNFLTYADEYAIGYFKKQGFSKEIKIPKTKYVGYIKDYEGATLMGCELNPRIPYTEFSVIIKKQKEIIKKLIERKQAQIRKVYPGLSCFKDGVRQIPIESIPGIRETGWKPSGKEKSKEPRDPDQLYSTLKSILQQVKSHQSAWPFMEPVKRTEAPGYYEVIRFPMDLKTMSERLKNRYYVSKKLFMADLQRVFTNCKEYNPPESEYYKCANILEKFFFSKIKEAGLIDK

[4] = molecular target: T2, BSA (Bos taurus, UniProt P02769); set-up: Intact protein LC/MS covalent labelling, fragments in pools of five, 200 uM each, 4 °C; settings: 24 h, 4 °C, pool of five; 200 µM; covalent
T2 construct: gene ALB
T2 sequence (P02769 whole entry, the tested form may be a part): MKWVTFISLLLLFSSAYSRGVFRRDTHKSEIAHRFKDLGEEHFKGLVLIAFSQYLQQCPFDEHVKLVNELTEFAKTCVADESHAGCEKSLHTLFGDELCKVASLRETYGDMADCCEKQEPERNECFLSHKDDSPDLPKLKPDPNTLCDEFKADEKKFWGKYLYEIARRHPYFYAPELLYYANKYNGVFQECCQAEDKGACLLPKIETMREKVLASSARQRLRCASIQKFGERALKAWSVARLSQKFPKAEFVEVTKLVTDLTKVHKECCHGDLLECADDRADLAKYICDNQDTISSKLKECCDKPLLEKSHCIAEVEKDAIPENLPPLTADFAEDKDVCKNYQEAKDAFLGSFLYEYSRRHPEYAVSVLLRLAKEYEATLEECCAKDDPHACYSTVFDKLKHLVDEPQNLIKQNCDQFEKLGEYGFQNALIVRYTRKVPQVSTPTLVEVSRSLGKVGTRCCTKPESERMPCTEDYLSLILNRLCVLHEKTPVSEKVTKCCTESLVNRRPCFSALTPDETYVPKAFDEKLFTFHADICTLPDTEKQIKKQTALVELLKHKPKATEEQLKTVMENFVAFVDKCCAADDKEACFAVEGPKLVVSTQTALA

[5] = molecular target: T3, OTUB2 (OTUB2A) (Homo sapiens, UniProt Q96DC9); set-up: Intact protein LC/MS covalent labelling, fragments in pools of five, 200 uM each, 4 °C; settings: 24 h, 4 °C, pool of five; 200 µM; covalent
T3 construct: full length residues 1-234, E. coli BL21(DE3)-R3, His tag removed by TEV, construct 27312 Da
T3 sequence (Q96DC9 1-234): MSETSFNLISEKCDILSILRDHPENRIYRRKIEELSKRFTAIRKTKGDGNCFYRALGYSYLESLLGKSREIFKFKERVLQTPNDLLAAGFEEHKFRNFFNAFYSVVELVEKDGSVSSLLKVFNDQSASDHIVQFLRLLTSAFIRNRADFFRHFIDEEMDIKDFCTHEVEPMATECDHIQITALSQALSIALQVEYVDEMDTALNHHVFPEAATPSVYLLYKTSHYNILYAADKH

[6] = molecular target: T4, NUDT7 (Homo sapiens, UniProt P0C024); set-up: Intact protein LC/MS covalent labelling, fragments in pools of five, 200 uM each, 4 °C; settings: 24 h, 4 °C, pool of five; 200 µM; covalent
T4 construct: residues 14-235, E. coli, pNIC28-Bsa4, N-terminal His6 tag removed by TEV, construct 26672 Da
T4 sequence (P0C024 14-235): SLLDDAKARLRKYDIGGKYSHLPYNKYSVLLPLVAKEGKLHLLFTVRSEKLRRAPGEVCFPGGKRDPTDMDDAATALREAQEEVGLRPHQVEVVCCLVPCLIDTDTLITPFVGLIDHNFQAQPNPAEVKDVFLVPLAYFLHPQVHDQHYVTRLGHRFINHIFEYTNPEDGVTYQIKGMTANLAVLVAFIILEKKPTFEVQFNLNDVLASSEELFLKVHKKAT

[7] = in vitro; set-up: species or system HB2, CCD841; settings: human, hek293 cells

Row | Structure (SMILES) | PCAF [3] | BSA [4] | OTUB2 [5] | NUDT7 [6] | viability at 48 h, 10 µM [1] [%] | viability at 48 h, 10 µM [2] [%] | viability at 48 h, 10 µM [7] [%]
1 | COC(=O)c1cccc(NC(=O)CCl)c1O [PCM-0102851] | 0 | 0 | 0.23 | 0.1 | 106 | 116 | 108
2 | O=C(CCl)Nc1cccnc1N1CCCC1 [PCM-0102852] | 0 | 0 | 0 | 0 | 106 | 100 | 115
3 | CC(C)(C)C(=O)NNC(=O)CCl [PCM-0102855] | 0 | 0 | 0 | 0.07 | 98.2 | 93.1 | 87.8
4 | C=CC(=O)Nc1ccccc1F [PCM-0102856] | 0 | 0 | 0 | 0 | 106 | 119 | 84
5 | Cc1ccc(S(C)(=O)=O)cc1NC(=O)CCl [PCM-0102858] | 0 | 0 | 0 | 0 | 58.6 | 66.6 | 19.2
6 | O=C(CCl)Nc1ccccc1N1CCCCC1 [PCM-0102860] | 0 | 0 | 0 | 0 | 111 | 109 | 97.5
7 | Cn1cccc1C(=O)NC(=O)CCl [PCM-0102863] | 0 | 0.2 | 0 | 0 | 106 | 112 | 92.2
8 | CN(Cc1ccsc1)C(=O)CCl [PCM-0102865] | 0 | 0 | 0 | 0.09 | 49.6 | 76.1 | 34
9 | O=C(CCl)N(c1ccc(F)cc1)C1C=CS(=O)(=O)C1 (stereo not drawn) [PCM-0102868] | 0 | 0 | 0 | 0.34 | 27.9 | 33.4 | 6.2
10 | CN(C(=O)CCl)C1=CCCC1 [PCM-0102869] | 0 | 0 | 0 | 0 | 111 | 110 | 101
11 | O=C(CCl)N1CCOCC1C1CC1 (stereo not drawn) [PCM-0102870] | 0 | 0 | 0 | 0.17 | 80.6 | 89.5 | 56.7
12 | Cc1csc(NC(=O)CCl)n1.Cl [PCM-0102872] | 0 | 0 | 0 | 0.16 | 90.4 | 94.9 | 91.9
13 | O=C(CCl)Nc1cc(F)cc(F)c1 [PCM-0102874] | 0 | 0 | 0 | 0.18 | 14.3 | 58.3 | 3.1
14 | N#Cc1ccc(NC(=O)CCl)cc1 [PCM-0102875] | 0 | 0 | 0.08 | 0.14 | 36.6 | 46 | 4.3
15 | CN(C)C(=O)c1ccc(NC(=O)CCl)cc1 [PCM-0102877] | 0 | 0 | 0 | 0 | 67.6 | 61.7 | 30.5
16 | Cc1cc(C)c(C(C)NC(=O)CCl)cc1C (stereo not drawn) [PCM-0102879] | 0 | 0 | 0.17 | 0 | 87.3 | 83.7 | 59.6
17 | COC(=O)C1CN(C(=O)CCl)c2ccccc2O1 (stereo not drawn) [PCM-0102880] | 0 | 0 | 0.11 | 0 | 112 | 96.4 | 97.5
18 | O=C(CCl)NCC1COc2ccccc2O1 (stereo not drawn) [PCM-0102881] | 0 | 0 | 0.39 | 0 | 81 | 76.2 | 56.3
19 | C=CC(=O)NC1CNC(=O)C1 (stereo not drawn) [PCM-0102882] | 0 | 0 | 0 | 0 | 108 | 99.1 | 97.3
20 | Cc1ccccc1NC(=O)CCl [PCM-0102887] | 0 | 0 | 0 | 0 | 90.2 | 69.6 | 55.1
21 | C=CC(=O)N1CCN(C(C)C)c2ccccc2C1 [PCM-0102888] | 0 | 0 | 0 | 0 | 108 | 93.1 | 101

More lines, main results first:

Row | PCAF [3] | BSA [4] | OTUB2 [5] | NUDT7 [6] | Structure (SMILES) | viability at 48 h, 10 µM [1] [%] | viability at 48 h, 10 µM [2] [%] | viability at 48 h, 10 µM [7] [%]
22 | 0 | 0 | 0 | 0 | Cl.O=C(CCl)N1CCN(c2cnccn2)CC1 [PCM-0102889] | 88.2 | 97.2 | 94.7
23 | 0 | 0 | 0 | 0.25 | O=C(CCl)Nc1ccc(Cl)nc1 [PCM-0102891] | 31.5 | 33.2 | 9
24 | 0 | 0 | 0 | 0.34 | CN(C(=O)CCl)c1nc2ccccc2s1 [PCM-0102894] | 88.4 | 83.6 | 87.7
25 | 0 | 0 | 0 | 0 | CC(=O)Nc1ccc(NC(=O)CCl)c(C(F)(F)F)c1 [PCM-0102895] | 97.1 | 91.7 | 82
26 | 0 | 0 | 0.23 | 0 | O=C(CCl)NCC1CCS(=O)(=O)C1 (stereo not drawn) [PCM-0102896] | 102 | 92.3 | 117
27 | 0 | 0 | 0 | 0.07 | CN(Cc1cc(C#N)ccc1F)C(=O)CCl [PCM-0102897] | 23.8 | 69.2 | 9.6
28 | 0 | 0 | 0.26 | 0.08 | CN(Cc1cnn(C)c1)C(=O)CCl.Cl [PCM-0102899] | 101 | 91.9 | 70.7
29 | 0 | 0 | 0 | 0.29 | CCN(C(=O)CCl)c1ccc(F)cc1 [PCM-0102900] | 61.2 | 13.6 | 10.3
30 | 0 | 0 | 0 | 0.46 | Cc1nc(-c2ccc3c(c2)CCN3C(=O)CCl)cs1 [PCM-0102901] | 2.3 | 22.6 | 1.2
31 | 0 | 0 | 0.06 | 0 | COC(=O)CNC(=O)CCl [PCM-0102906] | 87.7 | 86.7 | 112
32 | 0 | 0 | 0 | 0 | CCC(C)NC(=O)NC(=O)CCl (stereo not drawn) [PCM-0102908] | 110 | 91.8 | 88.7
33 | 0 | 0 | 0.08 | 0 | CC1CCC(NC(=O)CCl)CC1 (stereo not drawn) [PCM-0102913] | 96.2 | 86.2 | 72.4
